Assay results: US7572762B1, “Materials and methods relating to the induction of apoptosis in target cells” (University of Dundee, priority 1998, dated 2009)

Tests used:
[1] = system: 293 cells (transformed kidney epithelial cells); experiment: FACS (propidium iodide) analysis of apoptosis, 293 cells; type: cell-based, human; set-up: cell population induced to apoptose: dose or concentration left out as unconfirmed
[2] = system: p53 null lung carcinoma (H1299) cells; experiment: FACS analysis of apoptosis and cell cycle, H1299 cells; type: cell-based, human
Text: FIG. 8 illustrates a representative FACS (fluorescence activated cell sorting) profile obtained from the experiment indicated; horizontal axis denote DNA content of the cells and the vertical axis the numbers of cells that have a particular DNA content. Apoptotic cells have a subnormal DNA content and are represented as a peak to the extreme left of the profile (sub-G1); viable cells are represented in G1 and G2/M peaks which correspond to these phases of the cell cycle. Where percentages are provided, these indicate cells in sub-G1, G1 or G2/M phases, as indicated, as a percent of the total cell population. In all cases, the existence of apoptotic cells was confirmed by additional means such as microscopic examination.
Bar charts show quantitative data obtained from representative FACS analyses for the experiments indicated. In all cases, numbers of cells that are apoptotic (sub-G1), as a percentage of the total cell population, are depicted by diagonal-hatched bars; numbers of cells that are viable and in G1 (G1/S) phase of the cell cycle, as a percentage of the total cell population, are depicted by stippled bars; viable cells in G2/M phase of the cell cycle are depicted by horizontal-hatched bars.
The experiments described in the examples were performed using methods well-known to those skilled in the art and documented in standard text books in the field (e.g. Chapters 4 and 5, Methods in Cell Biology Vol 46 editors L. M. Schwartz and B. A. Osborne, Academic Press Ltd, London 1995 provides inter alia details on detection of apoptosis and cell division cycle arrest by FACS).

[3] = system: control B lymphoid (Daudi) cell line; experiment: FACS analysis of control B lymphoid cells; type: cell-based; conditions: for effect on control B cells: rimcazole 0.1 mM, 0.01 mM, 0.001 mM (FIG. 11c), haloperidol not shown; for apoptotic (sub-G1) cells: 48 hours, untreated basal apoptosis approximately 50%
MCF7 cells = experiment: FACS analysis of hormone responsive breast carcinoma cells; type: cell-based, human; conditions: rimcazole 0.001 mM, 48 hours
MDA MB 231 cells = experiment: FACS analysis of hormone unresponsive breast carcinoma cells; type: cell-based, human; conditions: rimcazole 0.001 mM, 48 hours
MDA MB 468 cells = experiment: FACS analysis of hormone insensitive breast cancer cells; type: cell-based, human
MCF 7::p53^val135 cells = experiment: Phase micrographs of MCF 7 cells with temperature sensitive p53; type: cell-based, human
Saos-2::p53^teti cells = experiment: FACS analysis of osteosarcoma cells with tetracycline-inducible p53; type: cell-based, human
wild-type Saos-2 cells = experiment: Wild-type Saos-2 cells lacking p53; type: cell-based, human; conditions: low dose rimcazole combined with doxycycline
[4] = system: MDA MB 468 human breast carcinoma xenografts; experiment: Human breast carcinoma xenograft growth in athymic mice; type: in vivo; conditions: 10 mg/kg/day intraperitoneal, day 45; all or selected tumours
[5] = system: human colon carcinoma (HT29) cells; experiment: FACS analysis of apoptosis, HT29 cells; type: cell-based
[6] = system: L428 Hodgkins lymphoma cells; experiment: FACS analysis of apoptosis and cell cycle, L428 cells; type: cell-based, human; conditions: 48 hours
[7] = mouse, in vivo
Procedure: All drugs were dissolved in sterile water for injection and frozen as ˜2 ml aliquots, except haloperidol which was stored as a powder at RT and made up fresh each day in 45% cyclodextrin. The mice were housed in filter boxes in Maximiser laminar flow cabinets and fed sterilized food and water. All procedures were carried out in class 1 laminar flow hoods using sterile equipment and reagents. The mice were dosed daily by an intraperitoneal route (combined therapies dosed simultaneously) and body weights and tumour measurements recorded at frequent intervals.

## C[C@@H]1CN(CCCn2c3ccccc3c3ccccc32)C[C@H](C)N1 [rimcazole, cis-9-[3-(3,5-Dimethyl-1-piperazinyl)propyl]-9H-carbazole]
[1]; rimcazole alone
  cell population induced to apoptose: 1%
[1]; rimcazole in combination with transiently overexpressed p53
  cell population induced to apoptose: 75%
[2]; rimcazole 0.01 mM in combination with trans-U50488 0.1 mM
  apoptosis: 67%
[2]; sublethal dose alone
  apoptosis, % of cells: 4%
[2]; sublethal dose of rimcazole with sublethal dose of TNF
  apoptosis, % of cells: 61%
[3]
  effect on control B cells: unaffected
MCF7 cells
  apoptosis: 6%
  proportion of G2/M cells: 32%
MDA MB 231 cells
  apoptotic cells, % of total cell population: 25%
  proportion of G2/M cells: 62%
MDA MB 468 cells; 0.001 mM, approximately 48 hours
  apoptotic cells: 16%
MDA MB 468 cells; 0.01 millimoles per liter, approximately 48 hours
  apoptosis, % of cell population: 79%
MDA MB 468 cells; rimcazole 0.001 mM combined with cis-U50488 0.1 mM
  cells induced to apoptose: 83%
MCF 7::p53^val135 cells; 32 degC (p53 wild-type conformation), e.g. 0.001 mM
  apoptosis (phase micrographs): marked induction of apoptosis
MCF 7::p53^val135 cells; 37 degC
  apoptosis (phase micrographs): largely unaffected
MCF 7::p53^val135 cells; 37 degC (p53 largely inactive), 0.1 mM
  apoptosis (phase micrographs): Apoptosis is induced
Saos-2::p53^teti cells; rimcazole 100 nM alone
  cell population induced to apoptose: approximately 5%
Saos-2::p53^teti cells; rimcazole 100 nM combined with doxycycline 0.02 μg/ml
  apoptotic cells: 85%
wild-type Saos-2 cells
  effect of combination on apoptosis: no effect
[4]
  tumour growth inhibition (tumour weights at excision): significant tumour growth inhibition

## COc1ccc2c(c1OC)C(=O)O[C@@H]2[C@H]1c2c(cc3c(c2OC)OCO3)CCN1C (relative stereo) [noscapine, (S-(R*,S*))-6,7-Dimethoxy-3-(5,6,7,8-tetrahydro-4-methoxy-6-methyl-1,3-dioxolo(4,5-g)isoquinolin-5-yl)-1(3H)-Isobenzofuranone]
[2]; 10^−4M combined with TNF 5 ng/ml
  apoptotic cells, % of total cell population: 74%
[2]; 10^−4M, 48 hours, alone
  apoptotic cells: 39%
[5]; 10^−4M on its own
  apoptosis, % of cell population: 67%
[5]; 10^−4M with TNF added
  apoptosis: additional increase
[6]; 10^−4M
  apoptosis induction: majority of the cell population
[6]; 10^−5M
  apoptosis induction: substantial amount of apoptosis
  mitotic arrest (G2/M cells): increase in percentage of G2/M cells
[3]
  apoptotic (sub-G1) cells: approximately 50%

## O=C(CCCN1CCC(O)(c2ccc(Cl)cc2)CC1)c1ccc(F)cc1 [haloperidol, 4(4-(4-chlorophenyl)-4-hydroxy-1-piperidinyl)-1-(4-fluorophenyl)-1-Butanone]
[1]; haloperidol 10^−5 M combined with transfected RelA(p65)
  apoptotic cells: 47%
[1]; haloperidol 10^−5 M on its own
  apoptotic cells: 2-3%
[1]; haloperidol without IκB (FIG. 9c)
  sub-G1 apoptotic cells, % of total cell population: 58%
[1]; non-degradable mutant IκB plasmid transfected prior to haloperidol
  sub-G1 apoptotic cells, % of total cell population: 5%
[2]; haloperidol 10^−5M alone
  apoptosis: 4%
[2]; haloperidol 10^−5M combined with TNF
  apoptosis: 59%
[3]
  effect on control B cells: unaffected
[4]
  tumour growth inhibition (tumour weights at excision): growth inhibition
[7]
  ill effects / toxicity in mice: transient sleepiness

## C[C@H]1c2cccc(O)c2C(=O)C2=C(O)[C@]3(O)C(=O)C(C(N)=O)=C(O)[C@@H](N(C)C)[C@@H]3[C@@H](O)[C@@H]21 [doxycycline]
Saos-2::p53^teti cells; low dose doxycycline alone
  cells undergoing apoptosis, % of total population: 4%

## Oc1ccc2c3c1O[C@H]1c4[nH]c5ccccc5c4C[C@@]4(O)[C@@H](C2)N(CC2CC2)CC[C@]314 [naltrindole]
[1]
  induction of death: fails to induce death
  induction of sub-G1 (apoptotic) cells: marked induction
[2]
  G2/M cell cycle arrest: appearance of a G2/M peak
  induction of apoptosis: marked induction of apoptosis
[6]; 10^−4M
  apoptosis induction: majority of the cell population
[6]; 10^−5M
  apoptosis induction: substantial amount of apoptosis
  mitotic arrest (G2/M cells): increase in percentage of G2/M cells
[3]
  apoptotic (sub-G1) cells: approximately 50%

B1: proenkephalin: proenkephalin destined for the secretory pathway, overexpressed from transiently transfected plasmid DNA (protein, UniProt P01210 1-267, looked up)
chain: MARFLTLCTWLLLLGPGLLATVRAECSQDCATCSYRLVRPADINFLACVMECEGKLPSLKIWETCKELLQLSKPELPQDGTSTLRENSKPEESHLLAKRYGGFMKRYGGFMKKMDELYPMEPEEEANGSEILAKRYGGFMKKDAEEDDSLANSSDLLKELLETGDNRERSHHQDGSDNEEEVSKRYGGFMRGLKRSPQLEDEAKELQKRYGGFMRRVGRPEWWMDYQKRYGGFLKRFAEALPSDEEGESYSKEVPEMEKRYGGFMRF
modifications: full-length
notes: proenkephalin destined for the secretory pathway, overexpressed from transiently transfected plasmid DNA
[1]; alone, 48 hours, TNF 5 ng/ml, proenkephalin 5 μg plasmid DNA (secretory) transfected
  induction of apoptosis: no induction of apoptosis
[1]; proenkephalin + TNF, co-transfection of 5 μg IκB plasmid
  reduction in percentage of sub-G1 (apoptotic) cells: greater than 50%
[1]; proenkephalin overexpressed in combination with TNF 5 ng/ml
  percentage of apoptotic (sub-G1) cells: marked increase
